This test concerns the target human PDE10A2 (Homo sapiens (Human), UniProt Q9Y233). Kind of test: PDE10 fluorescence polarization (IMAP FP) inhibition assay. In kind it is biochemical. To be noted: human PDE10A2 from transfected AD293 cells; FAM-labeled cAMP 50 nM; apparent inhibition constant; read-out: PDE10A Ki. In outline: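 Cytoplasmic lysate of AD293 cells transiently expressing human PDE10A2 (enzyme level giving 20% conversion) incubated with 50 nM FAM-cAMP in pH 7.2 Tris/MgCl2 buffer, 30 min at room temperature. IMAP binding solution added, FP read after ≥1 h; 10-point 3-fold compound titrations fitted to a four-parameter equation.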
Sequence of human PDE10A2 (Q9Y233 267-1055): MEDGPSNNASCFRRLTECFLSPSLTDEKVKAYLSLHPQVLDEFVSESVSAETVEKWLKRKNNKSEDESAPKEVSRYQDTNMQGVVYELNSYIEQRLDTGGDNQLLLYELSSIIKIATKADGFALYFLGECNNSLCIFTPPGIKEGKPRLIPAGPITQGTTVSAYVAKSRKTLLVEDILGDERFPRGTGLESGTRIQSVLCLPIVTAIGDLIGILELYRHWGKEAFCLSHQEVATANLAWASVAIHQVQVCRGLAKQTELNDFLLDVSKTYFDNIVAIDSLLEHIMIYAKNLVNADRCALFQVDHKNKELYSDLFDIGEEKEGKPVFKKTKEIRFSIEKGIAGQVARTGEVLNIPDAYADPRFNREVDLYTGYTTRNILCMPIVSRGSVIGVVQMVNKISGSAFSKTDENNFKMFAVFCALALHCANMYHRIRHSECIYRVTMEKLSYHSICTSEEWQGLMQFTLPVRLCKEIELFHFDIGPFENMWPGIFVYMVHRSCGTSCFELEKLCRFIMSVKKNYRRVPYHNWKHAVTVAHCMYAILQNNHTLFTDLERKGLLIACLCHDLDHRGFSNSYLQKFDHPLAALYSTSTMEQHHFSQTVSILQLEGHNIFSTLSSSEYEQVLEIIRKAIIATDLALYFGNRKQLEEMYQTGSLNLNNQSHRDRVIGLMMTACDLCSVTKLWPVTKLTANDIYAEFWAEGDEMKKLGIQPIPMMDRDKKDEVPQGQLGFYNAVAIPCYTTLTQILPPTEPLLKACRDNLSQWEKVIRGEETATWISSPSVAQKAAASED
Take `COc1cnccc1-c1cnc(C)nc1OC[C@H]1C[C@@H]1c1ccc(C)cn1` [Example 150, 5-(3-methoxypyridin-4-yl)-2-methyl-4-(((1S,2S)-2-(5-methylpyridin-2-yl)cyclopropyl)methoxy)pyrimidine]: the Ki was 0.47 nM.

Turning to `Cc1cc(-c2cnc(C)nc2OC[C@H]2C[C@@H]2c2ccc3ccccc3n2)ccn1` [Example 153, 2-((1S,2S)-2-((2-methyl-5-(2-methylpyridin-4-yl)pyrimidin-4-yloxy)methyl)cyclopropyl)quinoline], the Ki was 0.01 nM.

As to `Cc1ncc(-c2ccc(CO)nc2)c(OC[C@H]2C[C@@H]2c2ccc3ccccc3n2)n1` [Example 154, (5-(2-methyl-4-(((1S,2S)-2-(quinolin-2-yl)cyclopropyl)methoxy)pyrimidin-5-yl)pyridin-2-yl)methanol], the Ki was found to be 0.01 nM.

Take `Cc1ncc(-c2cccnc2)c(OC[C@H]2C[C@@H]2c2ccc3ccccc3n2)n1` [Example 155, 2-((1S,2S)-2-((2-methyl-5-(pyridin-3-yl)pyrimidin-4-yloxy)methyl)cyclopropyl)quinoline]: the Ki stood at 0.01 nM.

As to `Cc1ncc(-c2ccc(C(F)(F)F)nc2)c(OC[C@H]2C[C@@H]2c2ccc3ccccc3n2)n1` [Example 156, 2-((1S,2S)-2-((2-methyl-5-(6-(trifluoromethyl)pyridin-3-yl)pyrimidin-4-yloxy)methyl)cyclopropyl)quinoline], the Ki amounted to 0.12 nM.

On to `Cc1ncc(-c2ccc(C(C)(C)O)nc2)c(OC[C@H]2C[C@@H]2c2ccc3ccccc3n2)n1` [Example 157, 2-(5-(2-methyl-4-(((1S,2S)-2-(quinolin-2-yl)cyclopropyl)methoxy)pyrimidin-5-yl)pyridin-2-yl)propan-2-ol], for which the Ki is 0.02 nM.

With `Cc1cccc([C@H]2C[C@@H]2COc2nc(C)ncc2-c2cn(C)nc2C(C)O)n1` (stereo partly drawn) [Example 158, 1-(1-methyl-4-(2-methyl-4-(((1S,2S)-2-(6-methylpyridin-2-yl)cyclopropyl)methoxy)pyrimidin-5-yl)-1H-pyrazol-3-yl)ethanol], the Ki was 0.56 nM.

Turning to `Cc1ccnc([C@H]2C[C@@H]2COc2nc(C)ncc2-c2cn(C)nc2C(C)O)c1` (stereo partly drawn) [Example 159, 1-(1-methyl-4-(2-methyl-4-(((1S,2S)-2-(4-methylpyridin-2-yl)cyclopropyl)methoxy)pyrimidin-5-yl)-1H-pyrazol-3-yl)ethanol], the Ki came to 1.47 nM.

With `Cc1ccnc([C@H]2C[C@@H]2COc2nc(C)ncc2-c2cn(C)nc2C(C)O)c1` (stereo partly drawn) [Example 160, 1-(1-methyl-4-(2-methyl-4-(((1S,2S)-2-(4-methylpyridin-2-yl)cyclopropyl)methoxy)pyrimidin-5-yl)-1H-pyrazol-3-yl)ethanol], the Ki amounted to 2.92 nM.

For `Cc1cccc([C@H]2C[C@@H]2COc2nc(C)ncc2-c2cn(C)nc2C(C)O)n1` (stereo partly drawn) [Example 161, 1-(1-methyl-4-(2-methyl-4-(((1S,2S)-2-(6-methylpyridin-2-yl)cyclopropyl)methoxy)pyrimidin-5-yl)-1H-pyrazol-3-yl)ethanol], the Ki was 2.28 nM.

For the compound `CCc1ccc([C@H]2C[C@@H]2COc2nc(C)ncc2-c2cn(C)nc2C(C)O)nc1` (stereo partly drawn) [Example 162, 1-(4-(4-(((1S,2S)-2-(5-ethylpyridin-2-yl)cyclopropyl)methoxy)-2-methylpyrimidin-5-yl)-1-methyl-1H-pyrazol-3-yl)ethanol], the Ki stood at 0.13 nM.

Regarding `CCc1ccc([C@H]2C[C@@H]2COc2nc(C)ncc2-c2cn(C)nc2C(C)O)nc1` (stereo partly drawn) [Example 163, 1-(4-(4-(((1S,2S)-2-(5-ethylpyridin-2-yl)cyclopropyl)methoxy)-2-methylpyrimidin-5-yl)-1-methyl-1H-pyrazol-3-yl)ethanol], the Ki was 0.24 nM.

Consider `Cc1ccc([C@H]2C[C@@H]2COc2nc(C)ncc2-c2cn(C)nc2C(O)C(F)F)nc1` (stereo partly drawn) [Example 170, 2,2-difluoro-1-(1-methyl-4-(2-methyl-4-(((1S,2S)-2-(5-methylpyridin-2-yl)cyclopropyl)methoxy)pyrimidin-5-yl)-1H-pyrazol-3-yl)ethanol], for which the Ki is 1.48 nM.

Regarding `COc1ccc([C@H]2C[C@@H]2COc2nc(C)ncc2-c2ccc(C#N)cc2)nc1` [Example 171, 4-(4-(((1S,2S)-2-(5-methoxypyridin-2-yl)cyclopropyl)methoxy)-2-methylpyrimidin-5-yl)benzonitrile], the Ki came to 1.19 nM.

For `COc1ccc([C@H]2C[C@@H]2COc2nc(C)ncc2-c2ccc(C(=O)O)cc2)nc1` [Example 172, 4-(4-(((1S,2S)-2-(5-methoxypyridin-2-yl)cyclopropyl)methoxy)-2-methylpyrimidin-5-yl)benzoic acid], the Ki was 0.29 nM.

As for `Cc1cccc([C@H]2C[C@@H]2COc2nc(C)ncc2-c2ccc(C(C)(C)O)nc2)n1` [Example 176, 2-(5-(2-methyl-4-(((1S,2S)-2-(6-methylpyridin-2-yl)cyclopropyl)methoxy)pyrimidin-5-yl)pyridin-2-yl)propan-2-ol], the Ki was determined as 14.8 nM.

Take `Cc1ncc(-c2ccc(C(C)(C)O)nc2)c(OC[C@H]2C[C@@H]2c2ccc(C#N)cn2)n1` [Example 182, 6-((1S,2S)-2-((5-(6-(2-hydroxypropan-2-yl)pyridin-3-yl)-2-methylpyrimidin-4-yloxy)methyl)cyclopropyl)nicotinonitrile]: the Ki stood at 17.8 nM.

Regarding `Cc1ncc(-c2ccc(C(C)(C)O)nc2)c(OC[C@H]2C[C@@H]2c2ccc(C(F)(F)F)cn2)n1` [Example 183, 2-(5-(2-methyl-4-(((1S,2S)-2-(5-(trifluoromethyl)pyridin-2-yl)cyclopropyl)methoxy)pyrimidin-5-yl)pyridin-2-yl)propan-2-ol], the Ki was determined as 13.5 nM.

For `Cc1ccc([C@H]2C[C@@H]2COc2nc(C)ncc2C2CCC3(CC2)OCCO3)nc1` [Example 184, 2-methyl-4-(((1S,2S)-2-(5-methylpyridin-2-yl)cyclopropyl)methoxy)-5-(1,4-dioxaspiro[4.5]decan-8-yl)pyrimidine], the Ki was found to be 2.81 nM.

As to `Cc1ccc([C@H]2C[C@@H]2COc2nc(C)ncc2C2CCC(=O)CC2)nc1` [Example 185, 4-(2-methyl-4-(((1S,2S)-2-(5-methylpyridin-2-yl)cyclopropyl)methoxy)pyrimidin-5-yl)cyclohexanone], the Ki amounted to 3.73 nM.

For `Cc1cccc([C@H]2C[C@@H]2COc2nc(C)ncc2C2CCC3(CC2)OCCO3)n1` [Example 186, 2-methyl-4-(((1S,2S)-2-(6-methylpyridin-2-yl)cyclopropyl)methoxy)-5-(1,4-dioxaspiro[4.5]decan-8-yl)pyrimidine], the Ki worked out at 6.67 nM.

`Cc1cccc([C@H]2C[C@@H]2COc2nc(C)ncc2C2CCC(=O)CC2)n1` [Example 187, 4-(2-methyl-4-(((1S,2S)-2-(6-methylpyridin-2-yl)cyclopropyl)methoxy)pyrimidin-5-yl)cyclohexanone]: the Ki worked out at 18.6 nM.

For the compound `COc1ccc([C@H]2C[C@@H]2COc2nc(C)ncc2C2CCC3(CC2)OCCO3)nc1` [Example 188, 4-(((1S,2S)-2-(5-methoxypyridin-2-yl)cyclopropyl)methoxy)-2-methyl-5-(1,4-dioxaspiro[4.5]decan-8-yl)pyrimidine], the Ki came out at 2.84 nM.

With `COc1ccc([C@H]2C[C@@H]2COc2nc(C)ncc2C2CCC(=O)CC2)nc1` [Example 189, 4-(4-(((1S,2S)-2-(5-methoxypyridin-2-yl)cyclopropyl)methoxy)-2-methylpyrimidin-5-yl)cyclohexanone], the Ki was determined as 3.75 nM.

For the compound `Cc1ncc(C2CCC3(CC2)OCCO3)c(OC[C@H]2C[C@@H]2c2ccc3ccccc3n2)n1` [Example 190, 2-((1S,2S)-2-((2-methyl-5-(1,4-dioxaspiro[4.5]decan-8-yl)pyrimidin-4-yloxy)methyl)cyclopropyl)quinoline], the Ki is 0.06 nM.

For `Cc1ncc(C2CCC(=O)CC2)c(OC[C@H]2C[C@@H]2c2ccc3ccccc3n2)n1` [Example 191, 4-(2-methyl-4-(((1S,2S)-2-(quinolin-2-yl)cyclopropyl)methoxy)pyrimidin-5-yl)cyclohexanone], the Ki was found to be 0.06 nM.

Turning to `Cc1ncc([C@H]2CC[C@H](O)CC2)c(OC[C@H]2C[C@H]2c2ccc3ccccc3n2)n1` [Example 192, Trans-4-(2-methyl-4-(((1S,2R)-2-(quinolin-2-yl)cyclopropyl)methoxy)pyrimidin-5-yl)cyclohexanol], the Ki came to 0.01 nM.

On to `Cc1ncc([C@H]2CC[C@@H](O)CC2)c(OC[C@H]2C[C@H]2c2ccc3ccccc3n2)n1` [Example 193, (1R,4s)-4-(2-methyl-4-(((1S,2R)-2-(quinolin-2-yl)cyclopropyl)methoxy)pyrimidin-5-yl)cyclohexanol], for which the Ki was found to be 0.07 nM.

As for `CCc1ccc([C@@H]2C[C@@H]2COc2nc(C)ncc2C2CCC3(CC2)OCCO3)nc1` [Example 194, 4-(((1S,2R)-2-(5-ethylpyridin-2-yl)cyclopropyl)methoxy)-2-methyl-5-(1,4-dioxaspiro[4.5]decan-8-yl)pyrimidine], the Ki worked out at 2.98 nM.

`CCc1ccc([C@@H]2C[C@@H]2COc2nc(C)ncc2C2CCC(=O)CC2)nc1` [Example 195, 4-(4-(((1S,2R)-2-(5-ethylpyridin-2-yl)cyclopropyl)methoxy)-2-methylpyrimidin-5-yl)cyclohexanone]: the Ki worked out at 3.48 nM.

Regarding `CCc1ccc([C@@H]2C[C@@H]2COc2nc(C)ncc2[C@H]2CC[C@H](O)CC2)nc1` [Example 196, Trans-4-(4-(((1S,2R)-2-(5-ethylpyridin-2-yl)cyclopropyl)methoxy)-2-methylpyrimidin-5-yl)cyclohexanol], the Ki is 0.5 nM.

`CCc1ccc([C@@H]2C[C@@H]2COc2nc(C)ncc2[C@H]2CC[C@@H](O)CC2)nc1` [Example 197, (1R,4s)-4-(4-(((1S,2R)-2-(5-ethylpyridin-2-yl)cyclopropyl)methoxy)-2-methylpyrimidin-5-yl)cyclohexanol]: the Ki came out at 1.73 nM.
